Results as given in the supplement of paper PMC10307832.

What was measured:
Assay in all cases: relative viability (nuclei count vs DMSO), 5 days (fraction); higher = more cells survive
NCI-H1666 = test system: NCI-H1666
How it was run: (§1)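 Lung cancer cell lines in 1536-well plates got either a single drug or a fixed anchor-drug dose together with five library-drug doses (not always all listed) in √10 steps, by pin tool, on the day after seeding. Nuclei were counted after 5 days, and relative viability is the treated-to-vehicle ratio of nuclei counts. Values are medians of duplicate plates.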

EPLC-272H = test system: EPLC-272H
How it was run: as §1

PC-3 [JPC-3] = test system: PC-3 [JPC-3]
How it was run: as §1

EKVX = test system: EKVX
How it was run: as §1

NCI-H2342 = test system: NCI-H2342
How it was run: as §1

LU99A = test system: LU99A
How it was run: as §1

HCC-827 = test system: HCC-827
How it was run: as §1

NCI-H1975 = test system: NCI-H1975
How it was run: as §1

NCI-H2085 = test system: NCI-H2085
How it was run: as §1

LOU-NH91 = test system: LOU-NH91
How it was run: as §1

201T = test system: 201T
How it was run: as §1

HOP-62 = test system: HOP-62
How it was run: as §1

H3255 = test system: H3255
How it was run: as §1

NCI-H2087 = test system: NCI-H2087
How it was run: as §1

NCI-H1437 = test system: NCI-H1437
How it was run: as §1

HCC-44 = test system: HCC-44
How it was run: as §1

NCI-H358 = test system: NCI-H358
How it was run: as §1

LCLC-97TM1 = test system: LCLC-97TM1
How it was run: as §1

SW 1573 = test system: SW 1573
How it was run: as §1

NCI-H647 = test system: NCI-H647
How it was run: as §1

COR-L 105 = test system: COR-L 105
How it was run: as §1

NCI-H1395 = test system: NCI-H1395
How it was run: as §1

BEN = test system: BEN
How it was run: as §1

NCI-H2126 = test system: NCI-H2126
How it was run: as §1

COc1cc(N2CCC(C(N)=O)CC2)ccc1Nc1nc(N)c(Cl)c(Nc2ccccc2S(=O)(=O)C(C)C)n1 [HG-5-88-01] + CC(=O)Nc1cccc(-n2c(=O)n(C3CC3)c(=O)c3c(Nc4ccc(I)cc4F)n(C)c(=O)c(C)c32)c1 [Trametinib] (partner 0.02 µM)
relative viability (NCI-H1666; first compound 0.04 µM): 0.942
relative viability (NCI-H1666; first compound 0.1265 µM): 0.918
relative viability (NCI-H1666; first compound 0.4 µM): 0.853
relative viability (NCI-H1666; first compound 1.265 µM): 0.775
relative viability (NCI-H1666; first compound 4 µM): 0.621
relative viability (EPLC-272H; first compound 0.04 µM): 0.316
relative viability (EPLC-272H; first compound 0.1265 µM): 0.308
relative viability (EPLC-272H; first compound 0.4 µM): 0.279
relative viability (EPLC-272H; first compound 1.265 µM): 0.205
relative viability (EPLC-272H; first compound 4 µM): 0.0984
relative viability (PC-3 [JPC-3]; first compound 0.04 µM): 0.708
relative viability (PC-3 [JPC-3]; first compound 0.1265 µM): 0.738
relative viability (PC-3 [JPC-3]; first compound 0.4 µM): 0.684
relative viability (PC-3 [JPC-3]; first compound 1.265 µM): 0.448
relative viability (PC-3 [JPC-3]; first compound 4 µM): 0.361
relative viability (EKVX; first compound 0.04 µM): 0.367
relative viability (EKVX; first compound 0.1265 µM): 0.36
relative viability (EKVX; first compound 0.4 µM): 0.278
relative viability (EKVX; first compound 4 µM): 0.266
relative viability (NCI-H2342; first compound 0.04 µM): 0.846
relative viability (NCI-H2342; first compound 0.1265 µM): 0.939
relative viability (NCI-H2342; first compound 0.4 µM): 0.865
relative viability (NCI-H2342; first compound 4 µM): 0.969
relative viability (LU99A; first compound 0.04 µM): 0.584
relative viability (LU99A; first compound 0.1265 µM): 0.565
relative viability (LU99A; first compound 0.4 µM): 0.543
relative viability (LU99A; first compound 1.265 µM): 0.429
relative viability (LU99A; first compound 4 µM): 0.493
relative viability (HCC-827; first compound 0.04 µM): 0.529
relative viability (HCC-827; first compound 0.1265 µM): 0.463
relative viability (HCC-827; first compound 0.4 µM): 0.538
relative viability (HCC-827; first compound 1.265 µM): 0.18
relative viability (HCC-827; first compound 4 µM): 0.269
relative viability (NCI-H1975; first compound 0.04 µM): 0.4
relative viability (NCI-H1975; first compound 0.1265 µM): 0.446
relative viability (NCI-H1975; first compound 0.4 µM): 0.331
relative viability (NCI-H1975; first compound 1.265 µM): 0.329
relative viability (NCI-H1975; first compound 4 µM): 0.247
relative viability (NCI-H2085; first compound 0.04 µM): 0.613
relative viability (NCI-H2085; first compound 0.1265 µM): 0.553
relative viability (NCI-H2085; first compound 0.4 µM): 0.502
relative viability (NCI-H2085; first compound 1.265 µM): 0.478
relative viability (NCI-H2085; first compound 4 µM): 0.432
relative viability (LOU-NH91; first compound 0.04 µM): 0.74
relative viability (LOU-NH91; first compound 0.1265 µM): 0.787
relative viability (LOU-NH91; first compound 0.4 µM): 0.602
relative viability (LOU-NH91; first compound 1.265 µM): 0.567
relative viability (LOU-NH91; first compound 4 µM): 0.579
relative viability (201T; first compound 0.04 µM): 0.697
relative viability (201T; first compound 0.1265 µM): 0.699
relative viability (201T; first compound 1.265 µM): 0.694
relative viability (201T; first compound 4 µM): 0.782
relative viability (HOP-62; first compound 0.04 µM): 0.391
relative viability (HOP-62; first compound 0.1265 µM): 0.411
relative viability (HOP-62; first compound 0.4 µM): 0.345
relative viability (HOP-62; first compound 1.265 µM): 0.317
relative viability (HOP-62; first compound 4 µM): 0.383
relative viability (H3255; first compound 0.04 µM): 0.563
relative viability (H3255; first compound 0.1265 µM): 0.697
relative viability (H3255; first compound 0.4 µM): 0.619
relative viability (H3255; first compound 4 µM): 0.539
relative viability (NCI-H2087; first compound 0.04 µM): 0.238
relative viability (NCI-H2087; first compound 0.1265 µM): 0.218
relative viability (NCI-H2087; first compound 0.4 µM): 0.194
relative viability (NCI-H2087; first compound 1.265 µM): 0.15
relative viability (NCI-H2087; first compound 4 µM): 0.164
relative viability (NCI-H1437; first compound 0.04 µM): 0.581
relative viability (NCI-H1437; first compound 0.1265 µM): 0.56
relative viability (NCI-H1437; first compound 0.4 µM): 0.447
relative viability (NCI-H1437; first compound 1.265 µM): 0.475
relative viability (NCI-H1437; first compound 4 µM): 0.333
relative viability (HCC-44; first compound 0.04 µM): 1.04
relative viability (HCC-44; first compound 0.1265 µM): 1.03
relative viability (HCC-44; first compound 0.4 µM): 1.1
relative viability (HCC-44; first compound 1.265 µM): 1.07
relative viability (HCC-44; first compound 4 µM): 1.01
relative viability (NCI-H358; first compound 0.04 µM): 0.123
relative viability (NCI-H358; first compound 0.1265 µM): 0.124
relative viability (NCI-H358; first compound 0.4 µM): 0.131
relative viability (NCI-H358; first compound 1.265 µM): 0.106
relative viability (NCI-H358; first compound 4 µM): 0.105
relative viability (LCLC-97TM1; first compound 0.04 µM): 0.154
relative viability (LCLC-97TM1; first compound 0.1265 µM): 0.211
relative viability (LCLC-97TM1; first compound 0.4 µM): 0.188
relative viability (LCLC-97TM1; first compound 1.265 µM): 0.147
relative viability (LCLC-97TM1; first compound 4 µM): 0.136
relative viability (SW 1573; first compound 0.04 µM): 0.598
relative viability (SW 1573; first compound 0.1265 µM): 0.533
relative viability (SW 1573; first compound 0.4 µM): 0.581
relative viability (SW 1573; first compound 1.265 µM): 0.464
relative viability (SW 1573; first compound 4 µM): 0.52
relative viability (NCI-H647; first compound 0.04 µM): 0.436
relative viability (NCI-H647; first compound 0.1265 µM): 0.444
relative viability (NCI-H647; first compound 1.265 µM): 0.488
relative viability (NCI-H647; first compound 4 µM): 0.527
relative viability (COR-L 105; first compound 0.04 µM): 0.471
relative viability (COR-L 105; first compound 0.1265 µM): 0.423
relative viability (COR-L 105; first compound 0.4 µM): 0.402
relative viability (COR-L 105; first compound 1.265 µM): 0.319
relative viability (COR-L 105; first compound 4 µM): 0.421
relative viability (NCI-H1395; first compound 0.04 µM): 1
relative viability (NCI-H1395; first compound 0.1265 µM): 1.21
relative viability (NCI-H1395; first compound 0.4 µM): 1.08
relative viability (NCI-H1395; first compound 1.265 µM): 0.773
relative viability (NCI-H1395; first compound 4 µM): 1.13
relative viability (BEN; first compound 0.04 µM): 1.04
relative viability (BEN; first compound 0.1265 µM): 1.12
relative viability (BEN; first compound 0.4 µM): 1.16
relative viability (BEN; first compound 1.265 µM): 0.76
relative viability (BEN; first compound 4 µM): 1.06
relative viability (NCI-H2126; first compound 0.04 µM): 0.592
relative viability (NCI-H2126; first compound 0.1265 µM): 0.564
relative viability (NCI-H2126; first compound 0.4 µM): 0.557
relative viability (NCI-H2126; first compound 1.265 µM): 0.543
relative viability (NCI-H2126; first compound 4 µM): 0.558
